Data from paper PMC6765138 (Nucleic Acids Research, 2019).

B1: MtPrpR_(81–486) (Mycobacterium tuberculosis PrpR, Rv1129c, residues 81-486, N-terminal His6-tag) (domain or fragment)
chain: DARLVADLSDVFTDIGVEHAVSGAQIEEFVARMPEVGHSLVAVHRRLRAATEELEGYRSRATAETELPPARPMPFEEVRDFFYDRNNYIHDLDMAAERMFTESGMRTGGLDIQLAELMRDRFGISVVIDDNLPDTAKRRYHPDTKVLRVAHWLMPGQRAFQIATQLALVGQSDLISSIVATDDQLSTEARGVARIGLANYFAGAFLLPYREFHRAAEQLRYDIDLLGRRFGVGFETVCHRLSTLQRPRQRGIPFIFVRTDKAGNISKRQSATAFHFSRVGGSCPLWVVHDAFAQPERIVRQVAQMPDGRSYFWVAKTTAADGLGYLGPHKNFAVGLGCDLAHAHKLVYSTGVVLDDPSTEVPIGAGCKICNRTSCAQRAFPYLGGRVAVDENAGSSLPYSSTEQSV
notes: also called native PrpR_(81–486); wild-type MtPrpR_(81–486); not shown: His6, N-terminal, kept

Columns and labels:
[1] = molecular target: T1, MtPrpR81–486 (Mycobacterium tuberculosis, UniProt O06581)
T1 construct: gene prpR

[2] = molecular target: the molecule itself; assay: SEC

| Molecule | X-ray crystal structure of co-purified ligand; LC-HRMS of extracted ligand [1] | stoichiometry N [2] |
| --- | --- | --- |
| CC(C)(COP(=O)(O)OP(=O)(O)OC[C@H]1O[C@@H](n2cnc3c(N)ncnc32)[C@H](O)[C@@H]1OP(=O)(O)O)[C@@H](O)C(=O)NCCC(=O)NCCS [Coenzyme A] | the predominant CoA was built into all protein chains | – |
| B1 | – | 4 |
